# Test results taken from US12528837B2, “Aryl substituted polymyxin derivatives” (priority 2018, dated 2026).
# Read-outs that look alike come from different tables or passages of the source. Where a SMILES comes first, the peptide text is derived from it. Bridges are numbered along the chain shown (N, C = ends). [ ]: non-standard residue; d: D form. The star is where a group is joined. X2 = NC[C@@H](CC(=O)*)c1cccc(-c2ccccc2)c1; X9 = CC(C)c1cccc([C@H](CN)CC(=O)*)c1; X16 = NC[C@H](CC(=O)*)Cc1cccc(Cl)c1; X8 = NC[C@@H](CC(=O)*)Cc1cccc(Cl)c1; Dab = NCC[C@H](N)C(=O)O; Abu = CC[C@H](N)C(=O)O; Dap = NC[C@H](N)C(=O)O
# What was measured:
# P. aeruginosa CCUG 59347 = type: cell-based
# Procedure: (§1) The inoculum was prepared by making a direct suspension of isolated colonies (selected from an 18-24 hour Mueller-Hinton agar plate) adjusted to the 0.5 McFarland standard. […] The assays were performed in duplicate. […] Several of the compounds were subjected to multiple tests, and where this is the case, the MIC presented is the median value obtained. The MIC values are quoted in μg/mL.
# K. pneumoniae CA64 = type: cell-based
# Procedure: as §1
# E. coli CA58 = type: cell-based
# Procedure: as §1
# K. pneumoniae ATCC 13822 = type: cell-based
# Procedure: (§2) The inoculum was prepared by making a direct suspension of isolated colonies (selected from an 18-24 hour Mueller-Hinton agar plate) adjusted to the 0.5 McFarland standard. […] The assays were performed in duplicate. […] The MIC values are quoted in μg/mL.
# A. baumannii NCTC 13424 = type: cell-based
# Procedure: as §2
# P. aeruginosa ATCC 27853 = type: cell-based
# Procedure: as §2
# [1] = tested on: A. baumannii ATCC BAA-747; type: cell-based
# Procedure: as §2
# E. coli ATCC 25922 = type: cell-based
# Procedure: as §2
# [2] = Renal toxicity of Example 24 vs PMB after four doses in mouse; type: in vivo, mouse; conditions: mouse, in vivo, sc
# Procedure: Immediately after the fourth dose mice were transferred to metabolic cages and urine collected for 24 h. for determination of urinary biomarkers. After urine collection mice were sacrificed for renal histopathology.
# The urine biomarkers were normalized to urinary creatinine.
# [3] = Kidney drug level after subcutaneous dose in mouse; type: in vivo; conditions: mouse, in vivo, sc, 17.2 mg/kg
# Procedure: Four hours after dosing the animals were euthanised and kidneys removed, trimmed of fat and connective tissue, weighed and immediately snap-frozen. After thawing at room temperature, pairs of kidneys from each animal were placed in 2 mL conical tubes containing pre-weighed ceria-stabilised zirconium oxide beads. […] After 10 min. centrifugation at 13,000 rpm and 6° C., 200 μl of the supernatants were transferred into glass inserts and analysed by LC-MS-MS.
# HK-2 cells = experiment: In vitro renal cell toxicity assay (HK-2); type: cell-based
# Procedure: The in vitro renal cell toxicity assay was performed according to the following protocol. […] Cells were seeded at 7,500 cells per well in 96-well plates and allowed to adhere overnight. […] Water and DMSO levels were kept constant at 5% and 0.5% respectively. The test compounds were incubated with cells for 24 h at 37° C. 5% CO2 in a humidified atmosphere. […] Media only background values were subtracted before the data was analysed using GraphPad Prism. Individual values were normalised to the vehicle control wells for each compound. Compound concentration values were plotted as log values to enable a dose-response curve to be fitted. The bottom of the curve was constrained to zero and IC50 values were determined. IC50 values are expressed relative to that for PMB in the same experiment. Where multiple determinations have been made, median values are presented.
# [4] = cation-adjusted Mueller-Hinton Broth, 18-20 h, 35° C.
compound,measurement,setting,value
"CC(C)C[C@@H]1NC(=O)[C@@H](CC(C)C)NC(=O)[C@H](CCN)NC(=O)[C@@H](NC(=O)[C@H](CN)NC(=O)[C@@H](NC(=O)C[C@@H](CN)Cc2cccc(Cl)c2)[C@@H](C)O)CCNC(=O)[C@H]([C@@H](C)O)NC(=O)[C@H](CCN)NC(=O)[C@H](CCN)NC1=O [Example 13, (S)-4-amino-3-(3- chlorobenzyl)butanoyl- Thr-Dap-Cyclo[Dab- Dab-DLeu-Leu-Dab- Dab-Thr], Isomer 2] (X16-T[Dap][Dab][Dab][dL]L[Dab][Dab]T; lactam 3-C)",MIC P. aeruginosa CCUG 59347,P. aeruginosa CCUG 59347; CCUG 59347,0.5 µg/mL
same,MIC K. pneumoniae CA64,K. pneumoniae CA64; CA64,16 µg/mL
same,MIC E. coli CA58,E. coli CA58; CA58,8 µg/mL
same,MIC K. pneumoniae ATCC 13822,K. pneumoniae ATCC 13822; ATCC 13822,0.5 µg/mL
same,MIC A. baumannii NCTC 13424,A. baumannii NCTC 13424; NCTC 13424,0.5 µg/mL
same,MIC P. aeruginosa ATCC 27853,P. aeruginosa ATCC 27853; ATCC 27853,0.25 µg/mL
same,MIC A. baumannii ATCC BAA-747,[1]; ATCC BAA-747,0.5 µg/mL
same,MIC E. coli ATCC 25922,E. coli ATCC 25922; ATCC 25922,0.5 µg/mL
"CC(C)C[C@@H]1NC(=O)[C@@H](CC(C)C)NC(=O)[C@H](CCN)NC(=O)[C@@H](NC(=O)[C@H](CN)NC(=O)[C@@H](NC(=O)C[C@H](CN)Cc2cccc(Cl)c2)[C@@H](C)O)CCNC(=O)[C@H]([C@@H](C)O)NC(=O)[C@H](CCN)NC(=O)[C@H](CCN)NC1=O [Example 14, (R)-4-amino-3-(3- chlorobenzy!)butanoyl- Thr-Dap-Cyclo[Dab- Dab-DLeu-Leu-Dab- Dab-Thr] Isomer 1] (X8-T[Dap][Dab][Dab][dL]L[Dab][Dab]T; lactam 3-C)",MIC P. aeruginosa CCUG 59347,P. aeruginosa CCUG 59347; CCUG 59347,1 µg/mL
same,MIC K. pneumoniae CA64,K. pneumoniae CA64; CA64,32 µg/mL
same,MIC E. coli CA58,E. coli CA58; CA58,8 µg/mL
same,MIC K. pneumoniae ATCC 13822,K. pneumoniae ATCC 13822; ATCC 13822,0.5 µg/mL
same,MIC A. baumannii NCTC 13424,A. baumannii NCTC 13424; NCTC 13424,0.5 µg/mL
same,MIC P. aeruginosa ATCC 27853,P. aeruginosa ATCC 27853; ATCC 27853,0.5 µg/mL
same,MIC A. baumannii ATCC BAA-747,[1]; ATCC BAA-747,0.5 µg/mL
same,MIC E. coli ATCC 25922,E. coli ATCC 25922; ATCC 25922,1 µg/mL
"CC(C)C[C@@H]1NC(=O)[C@@H](CC(C)C)NC(=O)[C@H](CCN)NC(=O)[C@@H](NC(=O)[C@H](CN)NC(=O)[C@@H](NC(=O)C[C@@H](CN)c2cccc(C(C)C)c2)[C@@H](C)O)CCNC(=O)[C@H]([C@@H](C)O)NC(=O)[C@H](CCN)NC(=O)[C@H](CCN)NC1=O [Example 16, (R)-4-amino-3-(3- isopropylphenyl) butanoyl-Thr-Dap- Cyclo[Dab-Dab-DLeu- Leu-Dab-Dab-Thr]] (X9-T[Dap][Dab][Dab][dL]L[Dab][Dab]T; lactam 3-C)",MIC P. aeruginosa CCUG 59347,P. aeruginosa CCUG 59347; [4],1 µg/mL
same,MIC K. pneumoniae CA64,K. pneumoniae CA64; [4],8 µg/mL
same,MIC E. coli CA58,E. coli CA58; [4],16 µg/mL
same,MIC K. pneumoniae ATCC 13822,K. pneumoniae ATCC 13822; [4],0.25 µg/mL
same,MIC A. baumannii NCTC 13424,A. baumannii NCTC 13424; [4],0.5 µg/mL
same,MIC P. aeruginosa ATCC 27853,P. aeruginosa ATCC 27853; [4],0.5 µg/mL
same,MIC A. baumannii ATCC BAA-747,[1]; [4],0.5 µg/mL
same,MIC E. coli ATCC 25922,E. coli ATCC 25922; [4],0.5 µg/mL
"CC[C@@H]1NC(=O)[C@@H](CC(C)C)NC(=O)[C@H](CCN)NC(=O)[C@@H](NC(=O)[C@H](CN)NC(=O)[C@@H](NC(=O)C[C@H](CN)c2cccc(-c3ccccc3)c2)[C@@H](C)O)CCNC(=O)[C@H]([C@@H](C)O)NC(=O)[C@H](CCN)NC(=O)[C@H](CCN)NC1=O [Example 24, (S)-3-(1,1′-biphenyl- 3-yl)-4-aminobutanoyl-Thr- Dap-Cyclo[Dab-Dab- DLeu-Abu-Dab-Dab- Thr]] (X2-T[Dap][Dab][Dab][dL][Abu][Dab][Dab]T; lactam 3-C)",MIC P. aeruginosa CCUG 59347,P. aeruginosa CCUG 59347; CCUG 59347,0.25 µg/mL
same,MIC K. pneumoniae CA64,K. pneumoniae CA64; CA64,16 µg/mL
same,MIC E. coli CA58,E. coli CA58; CA58,4 µg/mL
same,Basophilic Tubules (cortex) (animals affected),[2]; 25 mg/kg,0/5
same,Mitotic Figures increased (animals affected),[2]; 25 mg/kg,0/5
same,"Tubular Degeneration/necrosis (histopathology, animals affected)",[2]; 25 mg/kg,0/5
same,Urine Albumin,[2]; 25 mg/kg,4.78
same,Urine Cystatin C,[2]; 25 mg/kg,31.04
same,Urine Kim-1,[2]; 25 mg/kg,27.61
same,Urine NGAL,[2]; 25 mg/kg,0.00
same,Urine β-2 microglobulin,[2]; 25 mg/kg,0.05
same,Basophilic Tubules (cortex) (animals affected),[2]; 50 mg/kg,2/5 (2 min)
same,Mitotic Figures increased (animals affected),[2]; 50 mg/kg,2/5 (2 min)
same,"Tubular Degeneration/necrosis (histopathology, animals affected)",[2]; 50 mg/kg,2/5 (2 min)
same,Urine Albumin,[2]; 50 mg/kg,6.95
same,Urine Cystatin C,[2]; 50 mg/kg,33.97
same,Urine Kim-1,[2]; 50 mg/kg,171.59
same,Urine NGAL,[2]; 50 mg/kg,0.63
same,Urine β-2 microglobulin,[2]; 50 mg/kg,13.22
same,Basophilic Tubules (cortex) (animals affected),[2]; 75 mg/kg,5/5 (2 min/
same,Mitotic Figures increased (animals affected),[2]; 75 mg/kg,5/5 (5 min)
same,"Tubular Degeneration/necrosis (histopathology, animals affected)",[2]; 75 mg/kg,5/5 (1 min/
same,Urine Albumin,[2]; 75 mg/kg,10.93
same,Urine Cystatin C,[2]; 75 mg/kg,81.44
same,Urine Kim-1,[2]; 75 mg/kg,"1,203.41"
same,Urine NGAL,[2]; 75 mg/kg,3.71
same,Urine β-2 microglobulin,[2]; 75 mg/kg,68.51
same,MIC K. pneumoniae ATCC 13822,K. pneumoniae ATCC 13822; ATCC 13822,0.25 µg/mL
same,MIC A. baumannii NCTC 13424,A. baumannii NCTC 13424; NCTC 13424,0.06 µg/mL
same,MIC A. baumannii ATCC BAA-747,[1]; ATCC BAA-747,0.03 µg/mL
same,tissue level at time at 4 h,[3],203000 ng/g
same,HK-2 rel to PMB,HK-2 cells,21.8
